IC50 data for 19 molecules are collected here from patent publication US20250353820A1, “ANTIVIRAL PYRAZOLOPYRIDINONE COMPOUNDS” (Novartis AG, priority 2019, published 2025).

SMILES strings stand for the structures. A value given as a limit tells only on which side of the number the result lay.

The target in the experiment is human HSV DNA polymerase UL30 (Human herpesvirus 1 (strain 17) (HHV-1) (Human herpes simplex virus 1), UniProt P04293). As to the kind of experiment: biochemical. The conditions noted are these: 625 pM HSV polymerase, 20 minutes at room temperature; read-out: HSV-polymerase Biochemical IC50.
For orientation: IC50 means the midpoint of a concentration-inhibition curve. `Cn1nc(C(=O)NCc2ccc(C#N)cc2)c2c1C(=O)N(CC1(S(=O)(=O)N3CCC(C)(O)C3)CC1)CC2` (single isomer, unassigned) [Example 130, (R)- or (S)-N-(4-Cyanobenzyl)-6-((1-((3-hydroxy-3-methylpyrrolidin-1-yl)sulfonyl)cyclopropyl)methyl)-1-methyl-7-oxo-4,5,6,7-tetrahydro-1H-pyrazolo[3,4-c]pyridine-3-carboxamide]: the half-maximal inhibitory concentration (IC50) turned out to be 122 nM. As to `Cn1nc(C(=O)NCc2ccc(C#N)cc2)c2c1C(=O)N(CC1(S(=O)(=O)C3CC3)CC1)CC2` [Example 3, N-(4-cyanobenzyl)-6-((1-(cyclopropylsulfonyl)cyclopropyl)methyl)-1-methyl-7-oxo-4,5,6,7-tetrahydro-1H-pyrazolo[3,4-c]pyridine-3-carboxamide], the IC50 turned out to be 55 nM. On to `Cn1nc(C(=O)NCc2ccc(Cl)cc2)c2c1C(=O)N(CC1(S(=O)(=O)C3CC3)CC1)CC2` [Example 4, N-(4-Chlorobenzyl)-6-((1-(cyclopropylsulfonyl)cyclopropyl)methyl)-1-methyl-7-oxo-4,5,6,7-tetrahydro-1H-pyrazolo[3,4-c]pyridine-3-carboxamide], for which the IC50 worked out at 48 nM.

For `Cn1nc(C(=O)NCc2ccc(F)cc2)c2c1C(=O)N(CC1(S(=O)(=O)C3CC3)CC1)CC2` [Example 5, 6-((1-(Cyclopropylsulfonyl)cyclopropyl)methyl)-N-(4-fluorobenzyl)-1-methyl-7-oxo-4,5,6,7-tetrahydro-1H-pyrazolo[3,4-c]pyridine-3-carboxamide], the IC50 came to 416 nM.

For `CN(Cc1ccc(C#N)cc1)C(=O)c1nn(C)c2c1CCN(CC1(S(=O)(=O)C3CC3)CC1)C2=O` [Example 6, N-(4-Cyanobenzyl)-6-((1-(cyclopropylsulfonyl)cyclopropyl)methyl)-N,1-dimethyl-7-oxo-4,5,6,7-tetrahydro-1H-pyrazolo[3,4-c]pyridine-3-carboxamide], the IC50 was determined as 959 nM.

For the molecule `Cc1ccc(CNC(=O)c2nn(C)c3c2CCN(CC2(S(=O)(=O)C4CC4)CC2)C3=O)cc1` [Example 8, 6-((1-(Cyclopropylsulfonyl)cyclopropyl)methyl)-1-methyl-N-(4-methylbenzyl)-7-oxo-4,5,6,7-tetrahydro-1H-pyrazolo[3,4-c]pyridine-3-carboxamide], the concentration for half-maximal inhibition (IC50) came to 1630 nM. In the case of `Cn1nc(C(=O)NCc2ccc(C#N)c(F)c2)c2c1C(=O)N(CC1(S(=O)(=O)C3CC3)CC1)CC2` [Example 9, N-(4-Cyano-3-fluorobenzyl)-6-((1-(cyclopropylsulfonyl)cyclopropyl)methyl)-1-methyl-7-oxo-4,5,6,7-tetrahydro-1H-pyrazolo[3,4-c]pyridine-3-carboxamide] it was 45 nM; in that of `Cn1nc(C(=O)NCc2ccc(Cl)s2)c2c1C(=O)N(CC1(S(=O)(=O)C3CC3)CC1)CC2` [Example 10, N-((5-Chlorothiophen-2-yl)methyl)-6-((1-(cyclopropylsulfonyl)cyclopropyl)methyl)-1-methyl-7-oxo-4,5,6,7-tetrahydro-1H-pyrazolo[3,4-c]pyridine-3-carboxamide], 641 nM; in that of `Cc1cc(CNC(=O)c2nn(C)c3c2CCN(CC2(S(=O)(=O)C4CC4)CC2)C3=O)ccc1C#N` [Example 11, N-(4-Cyano-3-methylbenzyl)-6-((1-(cyclopropylsulfonyl)cyclopropyl)methyl)-1-methyl-7-oxo-4,5,6,7-tetrahydro-1H-pyrazolo[3,4-c]pyridine-3-carboxamide], 2230 nM. With `Cc1cc(C#N)ccc1CNC(=O)c1nn(C)c2c1CCN(CC1(S(=O)(=O)C3CC3)CC1)C2=O` [Example 12, N-(4-Cyano-2-methylbenzyl)-6-((1-(cyclopropylsulfonyl)cyclopropyl)methyl)-1-methyl-7-oxo-4,5,6,7-tetrahydro-1H-pyrazolo[3,4-c]pyridine-3-carboxamide], the IC50 turned out to be 346 nM. The result for `Cn1nc(C(=O)NCc2ccc(C#N)cc2F)c2c1C(=O)N(CC1(S(=O)(=O)C3CC3)CC1)CC2` [Example 13, N-(4-Cyano-2-fluorobenzyl)-6-((1-(cyclopropylsulfonyl)cyclopropyl)methyl)-1-methyl-7-oxo-4,5,6,7-tetrahydro-1H-pyrazolo[3,4-c]pyridine-3-carboxamide] reads 311 nM. For the molecule `Cn1nc(C(=O)NCc2ccc(C#N)cn2)c2c1C(=O)N(CC1(S(=O)(=O)C3CC3)CC1)CC2` [Example 14, N-((5-Cyanopyridin-2-yl)methyl)-6-((1-(cyclopropylsulfonyl)cyclopropyl)methyl)-1-methyl-7-oxo-4,5,6,7-tetrahydro-1H-pyrazolo[3,4-c]pyridine-3-carboxamide], the IC50 came out at 1610 nM. For `COc1cc(CNC(=O)c2nn(C)c3c2CCN(CC2(S(=O)(=O)C4CC4)CC2)C3=O)ccc1C#N` [Example 15, N-(4-Cyano-3-methoxybenzyl)-6-((1-(cyclopropylsulfonyl)cyclopropyl)methyl)-1-methyl-7-oxo-4,5,6,7-tetrahydro-1H-pyrazolo[3,4-c]pyridine-3-carboxamide], the IC50 was 385 nM. The result for `C[C@H](NC(=O)c1nn(C)c2c1CCN(CC1(S(=O)(=O)C3CC3)CC1)C2=O)c1ccc(C#N)cc1` [Example 16, (S)-N-(1-(4-Cyanophenyl)ethyl)-6-((1-(cyclopropylsulfonyl)cyclopropyl)methyl)-1-methyl-7-oxo-4,5,6,7-tetrahydro-1H-pyrazolo[3,4-c]pyridine-3-carboxamide] reads 239 nM.

With `C[C@@H](NC(=O)c1nn(C)c2c1CCN(CC1(S(=O)(=O)C3CC3)CC1)C2=O)c1ccc(C#N)cc1` [Example 17, (R)-N-(1-(4-Cyanophenyl)ethyl)-6-((1-(cyclopropylsulfonyl)cyclopropyl)methyl)-1-methyl-7-oxo-4,5,6,7-tetrahydro-1H-pyrazolo[3,4-c]pyridine-3-carboxamide], the IC50 is greater than 25000 nM.

Take `Cn1nc(C(=O)N[C@@H](CO)c2ccc(Cl)cc2)c2c1C(=O)N(CC1(S(=O)(=O)C3CC3)CC1)CC2` [Example 18, (R)-N-(1-(4-Chlorophenyl)-2-hydroxyethyl)-6-((1-(cyclopropylsulfonyl)cyclopropyl)methyl)-1-methyl-7-oxo-4,5,6,7-tetrahydro-1H-pyrazolo[3,4-c]pyridine-3-carboxamide]: the IC50 amounted to 1060 nM. The result for `Cn1nc(C(=O)N[C@H](CO)c2ccc(Cl)cc2)c2c1C(=O)N(CC1(S(=O)(=O)C3CC3)CC1)CC2` [Example 19, (S)-N-(1-(4-Chlorophenyl)-2-hydroxyethyl)-6-((1-(cyclopropylsulfonyl)cyclopropyl)methyl)-1-methyl-7-oxo-4,5,6,7-tetrahydro-1H-pyrazolo[3,4-c]pyridine-3-carboxamide] reads 8180 nM. As for `CCS(=O)(=O)C1(CN2CCc3c(C(=O)NCc4ccc(C#N)cc4)nn(C)c3C2=O)CC1` [Example 20, N-(4-Cyanobenzyl)-6-((1-(ethylsulfonyl)cyclopropyl)methyl)-1-methyl-7-oxo-4,5,6,7-tetrahydro-1H-pyrazolo[3,4-c]pyridine-3-carboxamide], the IC50 stood at 259 nM. The result for `Cn1nc(C(=O)NCc2ccc(C#N)cc2)c2c1C(=O)N(CC1(S(C)(=O)=O)CC1)CC2` [Example 21, N-(4-Cyanobenzyl)-1-methyl-6-((1-(methylsulfonyl)cyclopropyl)methyl)-7-oxo-4,5,6,7-tetrahydro-1H-pyrazolo[3,4-c]pyridine-3-carboxamide] reads 517 nM.
